Test results published in patent US20120214875A1, “PHENOX[…]” (priority 2011, published 2012).
Where “and” joins values, the source holds several entries; their conditions need not be identical. Equal values may be shown once.

Key:
[1] = Stability of phenoxybenzamine in various solvents; type: physicochemical
Method: Various solvents were examined for their abilities to stabilize phenoxybenzamine. The solvents examined were alcohol, acetonitrile (ACN), methanol (MeOH), acidified solvents (e.g., acidified MeOH and acidified ACN). Phenoxybenzamine in these solvents was not stable for 24 hr at 4° C. The stability of phenoxybenzamine was examined in acidified ACN with 0.5%, 1% and 2% formic acid (“FA”). Phenoxybenzamine was stable for ˜3 hr at RT and 4° C. The measured amount of phenoxybenzamine for neat standard in 0.5% FA in ACN was higher than those using 1% FA in ACN, and 2% FA in ACN.
The stability of phenoxybenzamine was examined in acidified MeOH (80% MeOH containing 0.1% TFA). Phenoxybenzamine was stable for at least 48 hours at 4° C., −25° C. and −70° C.
(§1) The stability of phenoxybenzamine in acidified plasma samples containing 1% FA, 1% H3PO4, 2% H3PO4 or 0.1N HCl was tested.

[2] = Autosampler re-injection reproducibility of extracted QC samples; type: physicochemical; details: for Amount Found: single replicates; for % Difference: 7° C. ± 4° C.
Method: (§2) Phenoxybenzamine and the internal standard phenoxybenzamine-d5 were extracted from 0.2 mL of human plasma, using EDTA (potassium K2 salt) as the anticoagulant and containing 1.3% of H3PO4 as stabilizer, by solid phase extraction into 0.8 mL of 0.1% TFA in 80% methanol, followed by dilution with 0.4 mL of 0.1% TFA. An aliquot of this extract was injected into a high performance liquid chromatography system and detected using an API 3000 tandem mass spectrometer with HSID interface and quantitated using peak area ratio method. Method sensitivity and selectivity were achieved by detecting distinct precursor to product ion mass transitions for phenoxybenzamine (304.1→120.0) and the internal standard phenoxybenzamine-d5 (309.1→120.0) at defined retention times under reverse chromatographic conditions.
(§3) Blood plasma was separated from whole blood. The plasma samples should be protected from light and may be stored at −70° C. for use. The plasma samples were thawed in cold tap water and analyzed along with a set of standard samples. All samples were vortexed for about 20 seconds, centrifuged at 3000 rpm for 5 minutes at 4° C.±4° C., and placed in an ice-water bath. 200 uL of plasma was added to polypropylene tubes and kept in ice-water bath. 100 uL of internal standard working solution (40 ng/mL of phenoxybenzamine-d5) was added into all the tubes except those labeled with “BLANK.” 100 uL of 0.1 N HCl in 20% methanol was added to those labeled with BLANK and the tubes were vortexed for about 20 seconds. 400 uL of 1.7% phosphoric acid was added into all tubes. The tubes were vortexed for about 40 seconds and left in an ice-water bath. The Oasis™ HLB 1 cc (30 mg) cartridges (Waters) were washed first with 700 uL methanol and then with 700 uL water. The samples prepared above were then transferred into the cartridges which were then centrifuged at 1000 rpm for 2 minutes at 4° C.±4° C. Cartridges were then first washed with 700 uL water and then washed with 700 uL of 0.1% TFA in 40% methanol. Cartridges were then eluted twice with 400 μL of 0.1% TFA in 80% methanol, and all of the eluates were collected and diluted with 400 μL of 0.1% TFA. The extracted samples were then ready for analysis.
The mean concentration of the aged re-injected samples was compared with the mean concentration of the initial zero hour samples prepared at the same concentration as the QC samples.

[3] = Stability of phenoxybenzamine in whole blood; type: in vitro ADME, human; details: for WB Sample Amount Found, Mean: mean of six; for WB Sample Amount Found: single replicates
Method: Stability of phenoxybenzamine in human whole blood was determined by spiking phenoxybenzamine into fresh human whole blood. This was followed by the preparation of the whole blood samples into two sets: one set was immediately processed into plasma and the other set was stored at 4° C.±4° C. for up to two hours and then processed into plasma. Samples were extracted in replicates of six with control blank and analyzed.

[4] = Processed sample integrity; type: physicochemical; details: for Amount Found: single replicates; for % Difference: ~112 hours vs 0.0 hours, 4° C. ± 4° C.
Method: as §2, §3
The mean concentration at each time-point was compared with the mean concentration of the zero hour samples.

[5] = Stability of phenoxybenzamine in acidified plasma; type: in vitro ADME
Method: as §1

[6] = Stability of phenoxybenzamine in neat solution; type: physicochemical
Method: The stability of phenoxybenzamine in neat solutions was examined. The measured amount of phenoxybenzamine in neat solution dropped ˜90% in 24 hours at ambient temperature but ˜20% at 4° C.

[7] = QC HIGH 19.232 ng/mL added, 0.0 hours
[8] = QC HIGH 19.232 ng/mL added, ~75 hours at 7° C. ± 4° C.
[9] = QC HIGH 19.232 ng/mL added, ~110 hours at 7° C. ± 4° C.
[10] = QC LOW 0.601 ng/mL added, 0.0 hours
[11] = QC LOW 0.601 ng/mL added, ~110 hours at 7° C. ± 4° C.
[12] = human whole blood, ~2 hours at 4° C.±4° C.
[13] = QC HIGH 19.232 ng/mL added, ~112 hours at 4° C. ± 4° C.
[14] = QC LOW 0.601 ng/mL added, ~112 hours at 4° C. ± 4° C.

Question: Which “measured amount for neat standard in 0.5% FA in ACN compared with 1% FA and 2% FA in ACN” value ([1]; 0.5% FA in ACN vs 1% and 2% FA in ACN) does the source give for CC(COc1ccccc1)N(CCCl)Cc1ccccc1 (racemic) [phenoxybenzamine, (RS)—N-benzyl-N-(2-chloroethyl)-1-phenoxy-propan-2-amine] here?
Answer: higher

Question: And the “drop, autosampler stability” value ([1]; 0.5% FA in ACN, ~24 hr)?
Answer: ~70%

Question: And the “autosampler re-injection stability, time stable” value ([1]; 80% MeOH containing 0.1% TFA)?
Answer: at least 24 hours

Question: What about the “time stable in acidified MeOH” value ([1]; 80% MeOH containing 0.1% TFA, 4° C., −25° C. and −70° C.) of the same compound?
Answer: at least 48 hours

Question: And the “time stable in acidified ACN” value ([1]; ACN with 0.5%, 1% and 2% formic acid, RT and 4° C.)?
Answer: ~3 h

Question: What about the stability in solvents ([1]; alcohol, acetonitrile, methanol, acidified MeOH and acidified ACN, 24 hr at 4° C.) of the same compound?
Answer: not stable

Question: And the “Amount Found, Mean” value [2, 7]?
Answer: 18.178 ng/mL

Question: And the “Amount Found” value [2, 7]?
Answer: 18.305 ng/mL and 18.069 ng/mL and 18.161 ng/mL

Question: And the “Amount Found, Mean” value [2, 8]?
Answer: 18.411 ng/mL

Question: What about the “Amount Found” value [2, 8] of the same compound?
Answer: 18.066 ng/mL and 18.686 ng/mL and 18.482 ng/mL

Question: And the “Amount Found, Mean” value [2, 9]?
Answer: 18.423 ng/mL

Question: And the “Amount Found” value [2, 9]?
Answer: 18.179 ng/mL and 18.435 ng/mL and 18.656 ng/mL

Question: And the “% Difference” value ([2]; QC HIGH, ~75 hours vs 0.0 hours)?
Answer: 1.3%

Question: What about the “% Difference” value ([2]; QC HIGH, ~110 hours vs 0.0 hours) of the same compound?
Answer: 1.3%

Question: What about the “Amount Found, Mean” value [2, 10] of the same compound?
Answer: 0.601 ng/mL

Question: And the “Amount Found” value [2, 10]?
Answer: 0.590 ng/mL and 0.603 ng/mL and 0.610 ng/mL

Question: And the “Amount Found, Mean” value ([2]; QC LOW 0.601 ng/mL added, ~75 hours at 7° C. ± 4° C.)?
Answer: 0.615 ng/mL

Question: And the “Amount Found” value ([2]; QC LOW 0.601 ng/mL added, ~75 hours in autosampler at 7° C. ± 4° C.)?
Answer: 0.610 ng/mL and 0.646 ng/mL and 0.590 ng/mL

Question: What about the “Amount Found, Mean” value [2, 11] of the same compound?
Answer: 0.603 ng/mL

Question: And the “Amount Found” value [2, 11]?
Answer: 0.602 ng/mL and 0.612 ng/mL and 0.595 ng/mL

Question: What about the “% Difference” value ([2]; QC LOW, ~75 hours vs 0.0 hours) of the same compound?
Answer: 2.4%

Question: And the “% Difference” value ([2]; QC LOW, ~110 hours vs 0.0 hours)?
Answer: 0.3%

Question: And the “time for which extracted samples can be re-injected” value ([2]; extracted samples stored in autosampler at 7° C.±4° C.)?
Answer: up to 110 hours

Question: What about the “WB Sample Amount Found, Mean” value ([3]; human whole blood, time 0.0 hours) of the same compound?
Answer: 3.357 ng/mL

Question: And the “WB Sample Amount Found” value ([3]; human whole blood, time 0.0 hours, processed immediately into plasma)?
Answer: 3.379 ng/mL and 3.325 ng/mL and 3.381 ng/mL and 3.387 ng/mL and 3.305 ng/mL and 3.365 ng/mL

Question: And the “WB Sample Amount Found, Mean” value [3, 12]?
Answer: 3.297 ng/mL

Question: And the “WB Sample Amount Found” value [3, 12]?
Answer: 3.315 ng/mL and 3.330 ng/mL and 3.365 ng/mL and 3.328 ng/mL and 3.283 ng/mL and 3.160 ng/mL

Question: And the “% Difference” value ([3]; human whole blood, ~2 hours vs 0.0 hours, 4° C.±4° C.)?
Answer: −1.8%

Question: And the “time stable in whole blood” value ([3]; stored at 4° C.±4° C.)?
Answer: up to 2 hours

Question: And the “time for which integrity of processed samples is not affected” value ([4]; LOW and HIGH concentrations, 4° C.±4° C.)?
Answer: up to 112 hours

Question: And the “Amount Found, Mean” value [4, 7]?
Answer: 18.178 ng/mL

Question: And the “Amount Found” value [4, 7]?
Answer: 18.305 ng/mL and 18.069 ng/mL and 18.161 ng/mL

Question: And the “Amount Found, Mean” value [4, 13]?
Answer: 18.214 ng/mL

Question: What about the “Amount Found” value [4, 13] of the same compound?
Answer: 18.209 ng/mL and 18.214 ng/mL and 18.220 ng/mL

Question: What about the “% Difference” value ([4]; QC HIGH) of the same compound?
Answer: 0.2%

Question: And the “Amount Found, Mean” value [4, 10]?
Answer: 0.601 ng/mL

Question: And the “Amount Found” value [4, 10]?
Answer: 0.590 ng/mL and 0.603 ng/mL and 0.610 ng/mL

Question: And the “Amount Found, Mean” value [4, 14]?
Answer: 0.583 ng/mL

Question: What about the “Amount Found” value [4, 14] of the same compound?
Answer: 0.574 ng/mL and 0.590 ng/mL and 0.586 ng/mL

Question: What about the “% Difference” value ([4]; QC LOW) of the same compound?
Answer: −2.9%

Question: What about the “stability in acidified plasma” value ([5]; plasma containing 0.1N HCl) of the same compound?
Answer: stable

Question: What about the “stability in acidified plasma” value ([5]; plasma containing 1% FA) of the same compound?
Answer: stable except for 1% FA

Question: And the “stability in acidified plasma” value ([5]; plasma containing 1% H3PO4)?
Answer: stable

Question: What about the “stability in acidified plasma” value ([5]; plasma containing 2% H3PO4) of the same compound?
Answer: stable

Question: What about the “drop of measured amount in neat solution” value ([6]; 24 hours at 4° C.) of the same compound?
Answer: ~20%

Question: What about the “drop of measured amount in neat solution” value ([6]; 24 hours at ambient temperature) of the same compound?
Answer: ~90%
